{
  "source": "paper PMC9256669",
  "about": "“Monomethyl auristatin antibody and peptide drug conjugates for trimodal cancer chemo-radio-immunotherapy” (Nature Communications, 2022)",
  "key": {"LL/2 cells": {"tested_on": "LL/2 cells", "assay": "Cell cycle analysis", "format": "cell-based, murine", "procedure": "Cells were MMAE treated for 24 h, fixed in 70% ethanol, stained with FxCyclePI/RNase solution (Life Technologies), and then analyzed by FACS using FlowJo software. […]\n0.9 b) Cell cycle analysis […]\nSource data are provided in Source Data file."}, "B16": {"tested_on": "B16", "assay": "Cytotoxicity, Alamar Blue assay", "format": "cell-based, murine", "conditions": "B16, 72 h drug exposure, one value per biological replicate, read-out: IC50 values", "procedure": "(§1) Murine colorectal (MC38 (ENH204-FP)) cancer cell lines were obtained from Kerafast. Murine head and neck MOC1 and MOC2 were generously provided by Dr. R. Uppaluri. CAL27 PIK3CA H1047R expressing cells and 4MOSC1 cells were generated in Dr. Gutkind’s laboratory and previously characterized[42],[55]. […] MC38 cells were cultured in DMEM supplemented with 10% FBS, 1 mM sodium pyruvate (Gibco), 1% non-essential amino acids (Gibco), and 10 mM HEPES (Gibco). MOC1 and MOC2 cells were cultured in IMDM (Lonza)/F-12K nutrient mixture at a 2:1 mixture with 5% FBS, 5 ng/ml EGF (EMD Millipore), 400 ng/ml hydrocortisone (Sigma), and […] insulin (Sigma). On receipt, each cell line was expanded, cryopreserved as low passage stocks, and routinely tested for mycoplasma. Cisplatin (Enzo Biosciences), paclitaxel (Sigma), and MMAE (Concortis) were reconstituted in DMSO. Clinical-grade CDX3379 was provided by Celldex. Clinical grade cetuximab (Erbitux, Lilly Medical) was obtained from UCSD Moores Cancer Center Pharmacy.\n(§2) Cells were plated in 96-well plates and exposed to a drug concentration range for 72 h. Alamar Blue was added to the cells and allowed to incubate for 2–4 h at 37 °C. Plates were analyzed using a plate reader with fluorescence measured at 560 nm. Fractional survival was normalized to untreated control cell fluorescent values. Drug IC50 was calculated using Prism software (GraphPad, La Jolla, CA). Cell viability, cytotoxicity and apoptosis were also measured by ApoTox-Glo Triplex Assay (Promega)."}, "MC38": {"tested_on": "MC38", "assay": "Cytotoxicity, Alamar Blue assay", "format": "cell-based, murine", "conditions": "MC38, 72 h drug exposure, one value per biological replicate, read-out: IC50 values", "procedure": "as §1, §2"}, "4MOSC1": {"tested_on": "4MOSC1", "assay": "Cytotoxicity, Alamar Blue assay", "format": "cell-based, murine", "conditions": "4MOSC1, 72 h drug exposure, one value per biological replicate, read-out: IC50 values", "procedure": "as §1, §2"}, "4MOSC1 tumors": {"tested_on": "4MOSC1 tumors", "assay": "Orthotopic syngeneic tumor ACPP therapy, tumor volumes", "format": "in vivo, C57BL/6 mice", "conditions": "orthotopic 4MOSC1 tumors, conjugate monotherapy", "excerpt": "Orthotopic tongue xenograft tumors were established in 6-week-old NOD SCID mice by injecting 150,000 CAL27 parental (WT) or PIK3CA H1047R-expressing cells. […] On the last day of tumor xenograft measurements, mice were euthanized, tongues resected, imaged, and fixed. […] IR was delivered as 2 parallel opposed fields."}, "B16 tumors": {"tested_on": "B16 tumors", "design": "species or system C57BL/6 mice", "conditions": "mouse, in vivo", "procedure": "At harvest, tumors were isolated, minced, and re-suspended in FBS-free DMEM media supplemented with components of MACs tumor dissociation kit. Tissues were incubated for 15 min at 37 °C and mechanically digested using the gentle MACs Octo dissociator. Tissue suspensions were washed with fresh media and passed through a 100-µm strainer. Samples were split in half for immediate staining or stimulated with the Biolegend Cell Activation Cocktail (with Brefeldin A) for 3 h. Samples were washed with PBS and immediately processed for live/dead cell discrimination using BD LIVE/DEAD™ Fixable Blue Dead Cell Stain Kit. Cells were washed and stained for surface markers for 30 min at 4 °C. Intracellular staining was performed using the eBioscience FOXP3/Transcription Factor Buffer Set from Invitrogen and stained with intracellular antibodies. […] All antibodies were validated by the supplier. All flow cytometry data acquisition was done using BD LSRFortessa and analyzed using FlowJo software. […]\nRepresentative flow cytometry plots to gate immune cells quantitated in Fig. 4a, b, 4d &\nSupplementary Fig. 10b, c. b) Quantification of tumor immune cell identified by flow cytometry on […]\n(Clone:GB11). In addition, RNA levelsof tumor granzyme-B was analyzed by qPCR. […]"}},
  "note": "Several values for one entry are separate records, joined by “and”; a condition that tells them apart may be missing. Identical values can stand only once. Non-standard residues stand in square brackets, D forms with d. Residues, ends and D or L forms follow the SMILES beside them. *: point of attachment. Dolaproine = CO[C@@H]([C@@H]1CCCN1)[C@@H](C)C(=O)O; Dil = CC[C@H](C)[C@H](NC)[C@@H](CC(=O)O)OC; X1 = C[C@@H](N*)[C@@H](O)c1ccccc1; NMeV = CN[C@H](C(=O)O)C(C)C",
  "data": [
    {"compound": "CC[C@H](C)[C@@H]([C@@H](CC(=O)N1CCC[C@H]1[C@H](OC)[C@@H](C)C(=O)N[C@H](C)[C@@H](O)c1ccccc1)OC)N(C)C(=O)[C@@H](NC(=O)[C@@H](NC)C(C)C)C(C)C", "note": "[MMAE, monomethyl auristatin E] (H-[NMeV]V[Dil][Dolaproine]-X1)", "values": [
      {"measurement": "G2/M fraction", "setting": "LL/2 cells; MMAE 1 nM, replicate 1", "value": 0.15},
      {"measurement": "G2/M fraction", "setting": "LL/2 cells; MMAE 1 nM, replicate 2", "value": 0.12},
      {"measurement": "G2/M fraction", "setting": "LL/2 cells; MMAE 2 nM, replicate 1", "value": 0.13},
      {"measurement": "G2/M fraction", "setting": "LL/2 cells; MMAE 2 nM, replicate 2", "value": 0.14},
      {"measurement": "G2/M fraction", "setting": "LL/2 cells; MMAE 5 nM, replicate 1", "value": 0.21},
      {"measurement": "G2/M fraction", "setting": "LL/2 cells; MMAE 5 nM, replicate 2", "value": 0.23},
      {"measurement": "G2/M fraction", "setting": "LL/2 cells; MMAE 10 nM, replicate 1", "value": 0.63},
      {"measurement": "G2/M fraction", "setting": "LL/2 cells; MMAE 10 nM, replicate 2", "value": 0.53},
      {"measurement": "IC50", "setting": "B16", "value": "1.77 nM and 2.33 nM and 1.94 nM and 3.12 nM"},
      {"measurement": "IC50", "setting": "MC38", "value": "14.4 nM and 14.9 nM and 30.4 nM"},
      {"measurement": "IC50", "setting": "4MOSC1", "value": "1.82 nM and 1.52 nM"}
    ]},
    {"compound": "cyclo(RGD)fc-MC-HN-peg8-e9-oPLGC(Me)AG-r9-c-(MC-VC-PABC-MMAE)-CONH2 [ACPP-MMAE]", "values": [
      {"measurement": "tumor growth", "setting": "4MOSC1 tumors", "value": "modest tumor growth delay"},
      {"measurement": "CD8 T cell granzyme B", "setting": "B16 tumors", "value": "increased CD8 T cell granzyme B at both the transcriptional and protein levels"},
      {"measurement": "Immune checkpoint markers: GZMB, RNA", "setting": "B16 tumors", "value": "3.95 and 3.63"}
    ]}
  ]
}
